Measured values: publication PMC7835231, “Human organoid biofilm model for assessing antibiofilm activity of novel agents” (NPJ Biofilms and Microbiomes, 2021)
Entries after “also recorded” stand apart in the source; their conditions may differ.

Assays:
[1] = tested on: MRSA-lux (MRSA SAP149) biofilm; experiment: One-day or three-day MRSA-lux biofilm on N/TERT epidermal skin model, CFU count and luminescence; format: cell-based, Staphylococcus aureus; conditions: for antibiofilm activity (CFU recovered) against pre-established MRSA-lux biofilm: peptide 0.1% topical, 5 to 6 biological replicates, Kruskal–Wallis, Dunn's test versus control; for geometric mean of MRSA-lux bacteria recovered: untreated 1.3 × 10^8 CFU/skin, geometric mean of 3 to 9 biological replicates
Text: (§1) Bacterial strains used in this study include USA300-LAC[56] (referred to as MRSA), and a luminescent MRSA strain SAP149[57] (referred to as MRSA-lux), Pseudomonas aeruginosa strain PAO1[58] and a luminescent strain of P. aeruginosa[59] (PAO1-lux). Bacteria strains used for confocal microscopy imaging include S. aureus USA300-LAC transformed with a pKK22 plasmid expressing a far-red fluorescent protein (MRSA-FarRed), as well as P. aeruginosa PAO1 (PAO1-mCherry), transformed with an mCherry expressing plasmid, pMCh-23[60]. All S. aureus strains were grown overnight in TSB containing 1% D-glucose at 37 °C with shaking at 180 rpm, sub-cultured to mid-exponential growth phase in TSB 1% D-glucose. Bacteria were harvested and resuspended in sterile PBS to a concentration of 2 × 10^8 CFU/ml before seeding onto skin surface. All P. aeruginosa strains were grown in LB under the same conditions as mentioned above, subcultured in LB medium, and resuspended in PBS at 2 × 10^8 CFU/ml before seeding.
(§2) Skin models were established using a modification of described methods. Briefly, 3 × 10^5 N/TERT cells in 400 μl DermaLife K Keratinocyte Complete Medium with LifeFactors (5 μg/ml rh Insulin LifeFactor, 6 mM L-Glutamine LifeFactor, 1 μM Epinephrine LifeFactor, 5 μg/ml Apo-Transferrin LifeFactor, 0.5 ng/ml rh TGF-α LifeFactor, 0.4% Extract P LifeFactor, 100 ng/ml Hydrocortisone Hemisuccinate LifeFactor) were seeded onto each filter insert (ThinCert™ Cell culture insert, Greiner bio-one, Kremsmünster, Austria) in a 12-well ThinCert™ Plate (Greiner bio-one) holding 4.1 ml/well DermaLife K Keratinocyte Complete Medium with LifeFactors below each filter. Medium was refreshed every second day until N/TERT cells reached confluency in 3-4 days. Culture media both on top and below the filter were then switched to DMEM/Ham’s F-12/CnT-Prime 3D Barrier Media in a 3:1:4 ratio supplemented with 0.1 μg/ml hydrocortisone, 0.125 μg/ml isoproterenol, 0.25 μg/ml bovine insulin, 26.5 pM selenious acid, 5 mM L-serine, 5 μM L-carnitine, 1.6 mg/ml BSA, 25 μM palmitic acid, 15 μM linoleic acid and 7 μM arachidonic acid. Medium on top of the filters was removed the next day to allow air-exposure, which induced differentiation and stratification of the epidermis. After 2–3 days, linoleic acid concentration was increased to 30 μM. The skin samples were cultured for 10 days at air–liquid interface at 37 °C and 7.3% CO2 with medium being refreshed every 2–3 days.
(§3) One million MRSA or PAO1, or luminescent MRSA-lux or PAO1-lux, or fluorescently-tagged MRSA-FarRed or PAO1-mCherry resuspended in PBS were seeded (5 μl of 2 × 10^8 CFU/ml) in the center of the skin model, cultured at 37 °C and 7.3% CO2 to allow the establishment of bacterial biofilms. One day or three days after inoculation, 30 μl of 0.1% (1 mg/ml) or 0.4% (4 mg/ml) DJK-5 peptide was added on top of the biofilm for 4 h. […] To visualize biofilms, skin samples seeded with luminescent bacteria were imaged using the ChemiDoc Imaging System (Bio-Rad). To quantify bacterial counts, skin samples, together with the filter inserts, were excised using a disposable scalpel (VWR, Radnor, PA), sonicated in 1.5 ml PBS, vortexed, serially diluted, and plated on LB agar plates. The cut-off of the Y-axis in each figure indicates the detection limit of CFU count while bars indicate the geometric mean of recovered CFU.

PAO1-lux biofilm = experiment: One-day or three-day PAO1-lux biofilm on N/TERT epidermal skin model, CFU count and luminescence; format: cell-based, Pseudomonas aeruginosa; conditions: for antibiofilm activity (CFU recovered) against pre-established PAO1-lux biofilm: peptide 0.1% topical, 4 h, 5 to 6 biological replicates, Kruskal–Wallis, Dunn's test versus control
Text: as §1, §2, §3

[2] = tested on: MRSA (USA300-LAC) biofilm on burned skin; experiment: MRSA USA300 thermal wounding skin model, colony count; format: cell-based, Staphylococcus aureus
Method: as §3
Thermal damage was created by burning 10-day air–liquid interface skins at 100 °C for 4 s with a digital soldering iron (FX888D, American Hakko Products, Inc., Santa Clarita, CA). The skin filter inserts were transferred to 12-well plates (Sigma-Aldrich) containing 800 μl/well fresh culture medium prior to bacterial infection. MRSA biofilm was established by seeding 2 × 10^6 CFU in 5 μl PBS on top of the thermal damaged skin and cultured at 37 °C and 5% CO2 for 24 h. […]

N/TERT epidermal skin [3] = format: cell-based, human
Method: (§4) Thermal damage was created by burning 10-day air–liquid interface skins at 100 °C for 4 s with a digital soldering iron (FX888D, American Hakko Products, Inc., Santa Clarita, CA). The skin filter inserts were transferred to 12-well plates (Sigma-Aldrich) containing 800 μl/well fresh culture medium prior to bacterial infection. MRSA biofilm was established by seeding 2 × 10^6 CFU in 5 μl PBS on top of the thermal damaged skin and cultured at 37 °C and 5% CO2 for 24 h. DJK-5 peptide (30 μl of 0.4%) alone or in combination with 0.01%, 0.1%, or 0.4% 1002 was administered on top of the pre-formed biofilm. Skin samples were collected 24 h post peptide treatment for colony count.
(§5) At the time of colony quantification, culture supernatants below the skin filter inserts were harvested for measuring cytotoxicity by the lactate dehydrogenase assay using a Cytotoxicity Detection Kit (Roche Diagnostics, Basel, Switzerland), according to the manufacturer’s instructions. Untreated skin samples or skin samples treated with 5% Triton X-100 were used as negative (0% toxicity) or positive (100% toxicity) control, respectively. Culture supernatants were also used to measure IL-1β and IL-8 production using ELISA kits from eBioscience (San Diego, CA).

IL-1β production = experiment: IL-1β ELISA of culture supernatant, MRSA-infected burned skin; format: cell-based, human
Method: as §4, §5

[4] = tested on: P. aeruginosa PAO1 biofilm; experiment: One-day PAO1 biofilm on N/TERT epidermal skin model, CFU count; format: cell-based, Pseudomonas aeruginosa; conditions: 1-day biofilm; 0.4% (120 µg) DJK-5, 4 h; control 1.3 × 10^8 CFU/skin; geometric mean of 5 to 8 biological replicates
Text: as §1, with “All P. aeruginosa strains were grown in LB under the same conditions as mentioned above, subcultured in LB medium, and resuspended in PBS at 2 × 10^8 CFU/ml before seeding.” left out
One million MRSA or PAO1, or luminescent MRSA-lux or PAO1-lux, or fluorescently-tagged MRSA-FarRed or PAO1-mCherry resuspended in PBS were seeded (5 μl of 2 × 10^8 CFU/ml) in the center of the skin model, cultured at 37 °C and 7.3% CO2 to allow the establishment of bacterial biofilms. […] To quantify bacterial counts, skin samples, together with the filter inserts, were excised using a disposable scalpel (VWR, Radnor, PA), sonicated in 1.5 ml PBS, vortexed, serially diluted, and plated on LB agar plates. […]

IL-8 production [5] = experiment: IL-8 ELISA of culture supernatant, MRSA-infected burned skin; format: cell-based, human; conditions: burned skin with MRSA biofilm; 0.4% DJK-5, 24 h; ELISA of media below filter
Method: as §4, §5

IL-8 production [6] = format: cell-based, human
Text: as §5, with “CA). […]” for “CA).”
(§6) Supplementary Fig 4. Burned skin without infection and 2-day biofilm on skin without thermal damage had minimal changes in cytotoxicity and cytokine production compared to skin control without infection and thermal damage.
(§7) Thermally damaged epidermal skin was mock infected with PBS for 24 hours, followed by 24 hours treatment with 0.4% DJK-5 or water (a, b). The cytotoxicity (a) and IL-8 production (b) from culture supernatant beneath skin was determined. One day pre-established MRSA-lux and PAO1-lux skin biofilm was treated with vehicle control-water for 24 hours, changes in luminescence signal (c), bacteria load (d), skin cytotoxicity (e) and IL-8 level (f) was quantified. Error bars indicate mean with SD (n=3). One-way ANOVA, Dunnett’s multiple comparisons test (* P ≤ 0.05; ** P ≤ 0.01). […]

N/TERT epidermal skin [7] = format: cell-based, human; remark: listed apart in the source
Text: as §5, with “CA). […]” for “CA).”
as §6, §7

C/C(=C\C(=O)OCCCCCCCCC(=O)O)C[C@@H]1OC[C@H](C[C@@H]2O[C@H]2[C@@H](C)[C@H](C)O)[C@@H](O)[C@H]1O [mupirocin, reference compound]
bacterial load of MRSA-lux in the biofilm ([1]; 1-day biofilm, 1% mupirocin dissolved in 10% DMSO, topical, 4 h): did not have appreciable impact; also recorded: almost inactive

KRIRWVILWRQV [RI-1002, synthetic host defense peptide]
antibiofilm activity (CFU recovered) against pre-established MRSA-lux biofilm ([1]; 1-day biofilm, 4 h): comparable antibiofilm activity against MRSA-lux and PAO1-lux | antibiofilm activity (CFU recovered) against pre-established PAO1-lux biofilm (PAO1-lux biofilm; 1-day biofilm): comparable antibiofilm activity against MRSA-lux and PAO1-lux

RRWIRVAVILRV [RI-1018, synthetic host defense peptide]
antibiofilm activity (CFU recovered) against pre-established MRSA-lux biofilm ([1]; 1-day biofilm, 4 h): comparable antibiofilm activity against MRSA-lux and PAO1-lux | antibiofilm activity (CFU recovered) against pre-established PAO1-lux biofilm (PAO1-lux biofilm; 1-day biofilm): comparable antibiofilm activity against MRSA-lux and PAO1-lux

VQRWLIVWRIRK [compound 1002, Innate defense regulator peptide, a bactenecin derivative; anti-inflammatory synthetic HDP]
antibiofilm activity (CFU recovered) against pre-established MRSA-lux biofilm ([1]; 1-day biofilm, 4 h): All of the peptides except 1002 significantly reduced | antibiofilm activity (CFU recovered) against pre-established PAO1-lux biofilm (PAO1-lux biofilm; 1-day biofilm): All of the peptides except 1002 significantly reduced | reduction in bacterial count compared to untreated biofilms ([2]; burned skin with MRSA biofilm, 0.4% 1002 alone, 24 h): 17 fold | cytotoxicity from MRSA infected burned skin (N/TERT epidermal skin [3]): significant decreases | pro-inflammatory IL-1β release from MRSA infected burned skin (IL-1β production; 1002 treatment alone, 24 h, ELISA): significant decreases

VQWRAIRVRVIR [DJK-5, D-enantiomeric antibiofilm synthetic host defense peptide]
luminescence of MRSA-lux biofilm ([1]; 1-day biofilm, 0.1% (30 μg total peptide), 4 h, ChemiDoc imaging): reduced the area of colonization | geometric mean of MRSA-lux bacteria recovered ([1]; 1-day biofilm, 0.1% DJK-5 (30 μg) topical, 4 h): 1.6 × 10^6 CFU/skin | luminescence of MRSA-lux biofilm ([1]; 1-day biofilm, 0.4% (120 μg), 4 h, ChemiDoc imaging): completely abolished the luminescence | geometric mean of MRSA-lux bacteria recovered ([1]; 1-day biofilm, 0.4% DJK-5 (120 μg) topical, 4 h): 2.1 × 10^4 CFU/skin | antibiofilm activity (CFU recovered) against pre-established MRSA-lux biofilm ([1]; 1-day biofilm, 4 h): comparable antibiofilm activity against MRSA-lux and PAO1-lux; also recorded: superior activity in eradicating MRSA biofilm | reduction of bacterial load ([1]; 3-day MRSA-lux biofilm, 0.4% DJK-5, within 4 h of treatment, versus untreated): 4 log orders of magnitude | luminescence of MRSA-lux biofilm ([1]; 3-day biofilm, 0.4% DJK-5, 4 h): successfully wiped out the bacterial luminescence | geometric mean of recovered PAO1-lux bacteria (PAO1-lux biofilm; 1-day biofilm, 0.4% (120 µg) DJK-5, 4 h, control 8.9 × 10^7 CFU/skin, geometric mean of 5 to 8 biological replicates): 1.9 × 10^2 CFU/skin | luminescence of PAO1-lux biofilm (PAO1-lux biofilm; 1-day biofilm, 0.4% DJK-5, 4 h): evident reduction in the luminescence signal | antibiofilm activity (CFU recovered) against pre-established PAO1-lux biofilm (PAO1-lux biofilm; 1-day biofilm): comparable antibiofilm activity against MRSA-lux and PAO1-lux | bacterial burden (colony count) (PAO1-lux biofilm; 3-day PAO1-lux biofilm, 0.4% DJK-5, 4 h): significantly decreased bacterial burden | luminescence of PAO1-lux biofilm (PAO1-lux biofilm; 3-day biofilm, 0.4% DJK-5, 4 h): wiped out luminescence signal | geometric mean of recovered non-luminescent PAO1 bacteria [4]: 4.9 × 10^3 CFU/skin | bacterial load on burned skin ([2]; skin burned 100 °C 4 s, 24 h MRSA biofilm, 0.4% DJK-5 (120 μg) in PBS topical, control 7.8 × 10^8 CFU/skin, geometric mean): 3.2 × 10^5 CFU/skin | IL-1β production (IL-1β production; burned skin with MRSA biofilm, 0.4% DJK-5, 24 h, ELISA of media below filter): significantly suppressed | IL-8 production (IL-8 production [5]): significantly suppressed | IL-8 production compared to control skin (IL-8 production [6]): slightly increased IL-8 production | increase in observed cytotoxicity compared to control skin (N/TERT epidermal skin [7]): ~ 5%

VQWRRIRVWVIR [DJK-6, synthetic host defense peptide]
antibiofilm activity (CFU recovered) against pre-established MRSA-lux biofilm ([1]; 1-day biofilm, 4 h): superior effects in eradicating MRSA-lux biofilms; also recorded: superior activity in eradicating MRSA biofilm

VRLIVAVRIWRR [compound 1018, synthetic host defense peptide]
antibiofilm activity (CFU recovered) against pre-established MRSA-lux biofilm ([1]; 1-day biofilm, 4 h): superior effects in eradicating MRSA-lux biofilms; also recorded: superior activity in eradicating MRSA biofilm
